Where a SMILES comes first, the peptide text is derived from it. The star is where a group is joined. X1 = Oc1cccc(N*)c1
Legend:
[1] = molecular target: Human immunodeficiency virus type 1 protease (Human immunodeficiency virus 1, UniProt Q72874, Q7K); experiment: Inhibition of HIV1 subtype C protease Q7K mutant expressed in Escherichia coli BL21 (DE3) pLysS using Lys-Ala-Arg-Val-Nle-p-nitro-Phe-Glu-Ala-Nle-NH2 as substrate by spectrophotometry
[2] = Ratio of cytotoxicity for Lopinavir to compound for human MT4 cells after 5 days by XTT assay; format: cell-based
[3] = Solubility of the compound in aqueous buffer at pH 5; format: physicochemical
[4] = tested on: MT4; experiment: Cytotoxicity against human MT4 cells after 5 days by XTT assay; format: cell-based; settings: MT4, 120 h

| SMILES | IC50 [1] [µM] | selectivity ratio at 120 h [2] | solubility [3] | IC50 [4] [µM] |
| --- | --- | --- | --- | --- |
| CC[C@H](C)[C@H](NC(=O)[C@@H](N)CO)C(=O)N[C@@H](C)C(=O)N[C@@H](CCC(=O)O)C(=O)Nc1cccc(O)c1 (H-SIAE-X1) | 10 | – | – | – |
| CC[C@H](C)[C@H](NC(=O)[C@@H](N)CO)C(=O)N[C@@H](C)C(=O)N[C@@H](CCC(=O)O)C(=O)NC12NC(=O)C3(O)C4C5CC(C6C5C3C61)C42 (mixture of isomers) | 0.078 | 6000 | soluble | 218 |
| CC[C@H](C)[C@H](NC(=O)[C@@H](N)CO)C(=O)N[C@@H](C)C(=O)N[C@@H](CCC(=O)O)C(=O)NC12NC(=O)C3(OC(C)=O)C4C5CC(C6C5C3C61)C42 (mixture of isomers) | > 10 | 6000 | soluble | – |
| CC[C@H](C)[C@H](N)C(=O)N[C@@H](C)C(=O)N[C@@H](CCC(=O)O)C(=O)NC12NC(=O)C3(O)C4C5CC(C6C5C3C61)C42 (mixture of isomers) | 0.5 | 6000 | soluble | 216 |
| CC[C@H](C)[C@H](NC(=O)[C@@H](N)CO)C(=O)N[C@H](C(=O)N[C@@H](CCC(=O)O)C(=O)NC12NC(=O)C3(O)C4C5CC(C6C5C3C61)C42)C(C)C (mixture of isomers) | 2 | 6000 | soluble | – |
| CC[C@H](C)[C@H](NC(=O)[C@@H](N)CO)C(=O)N[C@@H](C)C(=O)N[C@@H](CCC(N)=O)C(=O)NC12NC(=O)C3(O)C4C5CC(C6C5C3C61)C42 (mixture of isomers) | 5 | 6000 | soluble | – |
| CC[C@H](C)[C@H](NC(=O)[C@@H](N)CO)C(=O)N[C@@H](C)C(=O)NC12NC(=O)C3(O)C4C5CC(C6C5C3C61)C42 (mixture of isomers; form 1) | 0.5 | 6000 | soluble | > 300 |
| CC[C@H](C)[C@H](NC(=O)[C@@H](N)CO)C(=O)N[C@@H](C)C(=O)NC12NC(=O)C3(O)C4C5CC(C6C5C3C61)C42 (mixture of isomers; form 2) | 10 | – | – | – |
| COC(=O)N[C@H](C(=O)N[C@@H](Cc1ccccc1)[C@@H](O)CN(Cc1ccc(-c2ccccn2)cc1)NC(=O)[C@@H](NC(=O)OC)C(C)(C)C)C(C)(C)C [ATAZANAVIR] | 0.004 | – | – | – |
| Cc1cccc(C)c1OCC(=O)N[C@@H](Cc1ccccc1)[C@@H](O)C[C@H](Cc1ccccc1)NC(=O)[C@H](C(C)C)N1CCCNC1=O [LOPINAVIR] | – | – | – | 0.035 |

Reference: ChEMBL document CHEMBL1828574, “Synthesis and structural studies of pentacycloundecane-based HIV-1 PR inhibitors: a hybrid 2D NMR and docking/QM/MM/MD approach” (Eur J Med Chem, 2011)
